This note sets out measurements from US10947252B2, “Inhibitors of KEAP1-Nrf2 protein-protein interaction” (Janssen Pharmaceutica NV, priority 2018, dated 2021).

A value given as a limit tells only on which side of the number the result lay.

The target of experiment [1] is Kelch domain of human KEAP1 (321-624 aa) (Homo sapiens (Human), UniProt Q14145). Nature of the experiment: KEAP1 KELCH ThermoFluor binding assay.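 Note: Ligand-induced melting temperature shift of E. coli-expressed KEAP1 Kelch protein, Kd estimated from concentration-response curves of ΔTm.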 To be noted: KEAP Kelch […], 1,8-ANS, pH 7.0, average of results obtained, read-out: Tf Kd.
Kelch domain of human KEAP1 (321-624 aa), sequence (Q14145 321-624): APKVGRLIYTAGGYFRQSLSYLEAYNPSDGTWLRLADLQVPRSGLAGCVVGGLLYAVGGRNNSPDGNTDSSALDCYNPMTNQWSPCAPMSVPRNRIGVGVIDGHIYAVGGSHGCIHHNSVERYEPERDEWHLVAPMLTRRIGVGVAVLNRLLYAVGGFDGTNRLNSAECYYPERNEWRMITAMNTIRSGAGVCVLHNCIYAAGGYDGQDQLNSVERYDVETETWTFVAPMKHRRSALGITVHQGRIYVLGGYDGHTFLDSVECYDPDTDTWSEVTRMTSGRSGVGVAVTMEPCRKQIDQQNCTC
Experiment [2] deals with Glo-Response ARE-luc2P HEK293 cell line. In words: ARE luciferase reporter cell-based assay.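 Note: luciferase signal tracks Nrf2 activation of the ARE once compounds disrupt KEAP1-Nrf2 binding, read with One-Glo reagent, DMSO serving as low control.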 To be noted: Homo sapiens, HEK293, 24 h, average of results obtained. In general terms: A reporter such as luciferase makes a cellular process visible.

Regarding `Cc1ncc([C@@H](c2ccc3c(nnn3C3CC3)c2C)C(C)(C)C(=O)O)cc1CN1CC2(COC2)Oc2ncccc2S1(=O)=O` (single isomer, unassigned) [Example 613, (*R)-3-(1-Cyclopropyl-4-methyl-1H-benzo[d][1,2,3]triazol-5-yl)-3-(5-((1′,1′-dioxidospiro[oxetane-3,4′-pyrido[2,3-b][1,4,5]oxathiazepin]-2′(3′H)-yl)methyl)-6-methylpyridin-3-yl)-2,2-dimethylpropanoic Acid], in experiment [1], the Kd (in general, the free concentration of one partner at which half of the binding sites on the other are occupied at equilibrium, for simple one-to-one binding) is < 1 nM. Further, a half-maximal effect in experiment [2] (EC50) was put at 33.2 nM.
As for `Cc1cnc2c(c1)S(=O)(=O)N(Cc1cc([C@@H](c3ccn4c(C(F)(F)F)nnc4c3C)C(C)(C)C(=O)O)ccc1C)CC1(COC1)O2` (single isomer, unassigned) [Example 614, (*S)-2,2-dimethyl-3-(4-methyl-3-((8′-methyl-1′,1′-dioxidospiro[oxetane-3,4′-pyrido[2,3-b][1,4,5]oxathiazepin]-2′(3′H)-yl)methyl)phenyl)-3-(8-methyl-3-(trifluoromethyl)-[1,2,4]triazolo[4,3-a]pyridine-7-yl)propanoic Acid], the Kd in experiment [1] was < 1 nM. Besides, in experiment [2], the EC50 (usually the concentration giving half of the maximal effect) amounted to 0.71 nM.
In the same order, the values of `Cc1ccc([C@@H](c2ccn3c(C(F)(F)F)nnc3c2C)C(C)(C)C(=O)O)cc1CN1CC2(COC2)Oc2ncccc2S1(=O)=O` (single isomer, unassigned) [Example 615, (*S)-3-(3-((1′,1′-dioxidospiro[oxetane-3,4′-pyrido[2,3-b][1,4,5]oxathiazepin]-2′(3′H)-yl)methyl)-4-methylphenyl)-2,2-dimethyl-3-(8-methyl-3-(trifluoromethyl)-[1,2,4]triazolo[4,3-a]pyridine-7-yl)propanoic Acid] are < 1 nM and 1.09 nM.
As to `Cc1ccc([C@@H](c2ccn3c(C(F)F)nnc3c2C)C(C)(C)C(=O)O)cc1CN1CC2(COC2)Oc2ncccc2S1(=O)=O` (single isomer, unassigned) [Example 616, (*S)-3-(3-(difluoromethyl)-8-methyl-[1,2,4]triazolo[4,3-a]pyridine-7-yl)-3-(3-((1′,1′-dioxidospiro[oxetane-3,4′-pyrido[2,3-b][1,4,5]oxathiazepin]-2′(3′H)-yl)methyl)-4-methylphenyl)-2,2-dimethylpropanoic Acid], the Kd in experiment [1] was < 1 nM. The compound further showed a concentration giving a half-maximal response (EC50) in experiment [2] of 2.14 nM.
In the same order, the values of `Cc1cnc2c(c1)S(=O)(=O)N(Cc1cc([C@@H](c3ccn4c(C(F)F)nnc4c3C)C(C)(C)C(=O)O)ccc1C)CC1(COC1)O2` (single isomer, unassigned) [Example 617, (*S)-3-(3-(Difluoromethyl)-8-methyl-[1,2,4]triazolo[4,3-a]pyridin-7-yl)-2,2-dimethyl-3-(4-methyl-3-((8′-methyl-1′,1′-dioxidospiro[oxetane-3,4′-pyrido[2,3-b][1,4,5]oxathiazepin]-2′(3′H)-yl)methyl)phenyl)propanoic Acid] are < 1 nM and 1.15 nM.
In the same order, the values of `Cc1cnc2c(c1)S(=O)(=O)N(Cc1cc([C@H](c3ccn4c(C5CC5)nnc4c3C)C(C)(C)C(=O)O)ccc1C)CC1(COC1)O2` (single isomer, unassigned) [Example 619, (*R)-3-(3-Cyclopropyl-8-methyl-[1,2,4]triazolo[4,3-a]pyridin-7-yl)-2,2-dimethyl-3-(4-methyl-3-((8′-methyl-1′,1′-dioxidospiro[oxetane-3,4′-pyrido[2,3-b][1,4,5]oxathiazepin]-2′(3′H)-yl)methyl)phenyl)propanoic Acid] are < 1 nM and 4.48 nM.
In the same order, the values of `Cc1ccc([C@H](c2ccn3c(C4CC4)nnc3c2C)C(C)(C)C(=O)O)cc1CN1CC2(COC2)Oc2ncccc2S1(=O)=O` (single isomer, unassigned) [Example 620, (*R)-3-(3-Cyclopropyl-8-methyl-[1,2,4]triazolo[4,3-a]pyridin-7-yl)-3-(3-((1′,1′-dioxidospiro[oxetane-3,4′-pyrido[2,3-b][1,4,5]oxathiazepin]-2′(3′H)-yl)methyl)-4-methylphenyl)-2,2-dimethylpropanoic Acid] are < 1 nM and 7.87 nM.
